Results published in US12559471B2, “1,5-dihydro-2,4-benzodiazepine-3-one derivative and application thereof” (JIANGSU NHWA PHARMACEUTICAL CO., LTD, priority 2020, dated 2026).
Like-named read-outs stand apart in the source and are kept apart here.

Key:
5-HT2A receptor = 5-HT2A receptor (Homo sapiens (Human), UniProt P28223); experiment: Competitive 5-HT2A receptor binding assay (3H-Ketanserin, CHO-5-HT2A membrane); conditions: for 2C/2A: ratio of 5-HT2C Ki to 5-HT2A Ki
Protocol: 1) Preparation of CHO-5-HT2A Receptor Membrane
The precipitate was collected, and the supernatant was discarded. The solution B was added into the precipitate. […] The supernatant was carefully discarded, and the solution B was added into the precipitate again. […] The precipitate obtained was stored at −80° C.
1) Competitive 5-HT2A Receptor Binding Assay
Step 2: 100 μL of the membrane preparation was added into each reaction tube.
After the filtration, the filter membrane was dried at 60° C. and added into a scintillation disc attached with a bottom membrane, which was then added with 40 μL of scintillation liquid, sealed with a top membrane, and left to stand.

5-HT2C receptor = 5-HT2C receptor (Rattus norvegicus (Rat), UniProt P08909)
Protocol: 2) Preparation of 5-HT2C Membrane
The rat cortex was taken out of a refrigerator at −80° C. and thawed spontaneously. The solution A was added, and the mixture was homogenized for 3-4 s at 4th gear for a total of 4 times and centrifuged at 50000 g for 25 min at 4° C. The supernatant was discarded, and the solution A was added into the precipitate. The mixture was mixed well using a vortex mixer and centrifuged at 50000 g for 25 min at 4° C. (repeated twice). The supernatant was discarded after the centrifugation, and the precipitate was stored at −80° C. for later use.
2) Competitive 5-HT2C Receptor Binding Assay
Step 1: the prepared membrane was suspended in the homogenate B to obtain a 210 mg/mL membrane suspension for later use.
Step 2: 100 μL of the membrane suspension was added into each reaction tube.
Step 3: 100 μL of the solution B was added into a total binding tube (TB), 100 μL of Ketanserin (final concentration: 1.0×10^−5 M) was added into a non-specific binding tube (NB), and 100 μL of test compound was added into each compound binding tube (CB).
Step 4: 10 μL of radioligand ^3H-Mesulergine was added into each reaction tube to reach a final concentration of 3 nM.
Step 5: each reaction tube was incubated at 37° C. for 25 min. After the reaction was completed, the binding ligands were rapidly filtered under reduced pressure, wherein the Whatman test paper GF/C was washed with 0.5% PEI solution 1 h in advance. The filter membrane was fully washed with cold Tris buffer solution, taken out and put into a 4 mL scintillation disc, which was then added with 1 mL toluene scintillation solution and shaken for mixing well.
Step 6: the scintillation disc was put into a liquid scintillation counter for counting.

[1] = system: DOI-induced head shaking behavior of mice; experiment: DOI-induced head shaking (head thrust) test in mice; assay type: in vivo; conditions: Mus musculus, intragastric, DOI 1 mg/kg i.p., 0-20 min, read-out: ED50 for inhibiting the DOI-induced head shaking behavior
Protocol: 1. Head Thrust Test in Mice
Mice were stratified according to body weight and then randomly divided into a model control group, a blank control group and drug administration groups. 1 h after the intragastric administration of a vehicle or a drug, the animals were placed in a beaker (with the diameter of 13 cm and the height of 19 cm) paved with fresh padding, and were injected with a modeling drug DOI ((±)-1-(2,5-dimethoxy-4-iodophenyl)-2-aminopropane hydrochloride or (±)-2,5-dimethoxy-4-iodoamphetamine hydrochloride) intraperitoneally at a dose of 1 mg/kg. The head shaking times of the mice during the 0-20 min after the intraperitoneal injection of DOI were recorded. The head shaking behavior is defined as a rapid rotational twitching or wet dog-like shaking of the mouse head, which is distinguished from normal grooming or exploring behavior.

[2] = system: MK-801-induced high activity behavior of mice; experiment: Dizocilpine (MK-801)-induced high activity test in mice; assay type: in vivo; conditions: Mus musculus, 1 h, intragastric, MK-801 0.3 mg/kg i.p., 60 min, read-out: ED50 for inhibiting the MK-801-induced high activity behavior
Protocol: 2. Dizocilpine (MK-801)-Induced High Activity Test in Mice 2.1 Test Method
Mice were stratified according to body weight and then randomly divided into a model control group, a blank control group and drug administration groups. After the administration of a test substance (or a control substance), the mice were placed into an autonomous activity test box (a black polyethylene box with the specification of 29 cm×29 cm×30 cm) for adaptation, and injected with MK-801 at 0.3 mg/kg intraperitoneally 1 h after the intragastric administration. The mice were then placed into the autonomous activity test box for video recording for 60 min. Video analysis was performed after the video recording to evaluate the activity of the mice.

[3] = CHO-5-HT2A membrane, 3H-Ketanserin, read-out: 5-HT2A (Ki value)
[4] = read-out: 5-HT2C (Ki value), rat cortex membrane, 3H-Mesulergine

Sequence of 5-HT2C receptor (P08909 33-460): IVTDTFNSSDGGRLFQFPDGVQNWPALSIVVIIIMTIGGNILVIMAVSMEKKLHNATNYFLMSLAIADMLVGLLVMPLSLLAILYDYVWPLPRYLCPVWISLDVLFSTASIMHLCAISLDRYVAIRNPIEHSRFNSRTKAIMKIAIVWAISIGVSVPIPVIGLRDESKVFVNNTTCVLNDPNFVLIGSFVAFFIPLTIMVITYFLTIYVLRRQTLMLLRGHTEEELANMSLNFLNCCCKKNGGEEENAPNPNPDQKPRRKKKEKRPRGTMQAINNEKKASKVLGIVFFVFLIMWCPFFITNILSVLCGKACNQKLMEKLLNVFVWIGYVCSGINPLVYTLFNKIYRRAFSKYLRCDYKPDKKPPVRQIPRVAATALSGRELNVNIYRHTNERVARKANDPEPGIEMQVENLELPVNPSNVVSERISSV
Sequence of 5-HT2A receptor (P28223 whole entry): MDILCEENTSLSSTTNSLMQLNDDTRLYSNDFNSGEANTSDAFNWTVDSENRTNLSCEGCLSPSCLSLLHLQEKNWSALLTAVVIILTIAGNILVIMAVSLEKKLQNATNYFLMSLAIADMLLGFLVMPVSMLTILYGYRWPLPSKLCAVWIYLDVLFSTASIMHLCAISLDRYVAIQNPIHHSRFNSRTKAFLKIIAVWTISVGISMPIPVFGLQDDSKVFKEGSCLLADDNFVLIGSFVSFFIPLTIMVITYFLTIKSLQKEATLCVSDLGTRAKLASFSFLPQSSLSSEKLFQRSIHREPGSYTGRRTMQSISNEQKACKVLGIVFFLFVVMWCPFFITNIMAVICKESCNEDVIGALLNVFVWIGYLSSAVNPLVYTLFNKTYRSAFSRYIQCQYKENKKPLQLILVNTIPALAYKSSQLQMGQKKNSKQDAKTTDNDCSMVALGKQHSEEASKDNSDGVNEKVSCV

Row | Structure (SMILES) | Ki (5-HT2A receptor; [3]) [nM] | 2C/2A (5-HT2A receptor) | Ki (5-HT2C receptor; [4]) [nM] | further results
1 | CC(C)CNc1ccc(CN2Cc3ccc(F)cc3CN(C3CCN(C)CC3)C2=O)cc1 [NH-K-A19007, 8-fluoro-2-(1-methylpiperidin-4-yl)-4-[[4-(2-methylpropylamino)phenyl]methyl]-1,5-dihydro-2,4-benzodiazepine-3-one] | 2.72 | 10.040 | 27.3 | –
2 | CC(C)Cc1ccc(CN2Cc3ccc(F)cc3CN(C3CCN(C)CC3)C2=O)cc1 [NH-K-A19008, 8-fluoro-2-(1-methylpiperidin-4-yl)-4-[[4-(2-methylpropyl)phenyl]methyl]-1,5-dihydro-2,4-benzodiazepine-3-one] | 5.29 | 7.999 | 42.4 | –
3 | COc1ccc(CN2Cc3ccc(F)cc3CN(C3CCN(C)CC3)C2=O)cc1 [NH-K-A19009, 8-fluoro-2-(1-methylpiperidin-4-yl)-4-[(4-methoxyphenyl)methyl]-1,5-dihydro-2,4-benzodiazepine-3-one] | 2.99 | 0.679 | 2.03 | –
4 | CN1CCC(N2Cc3cc(F)ccc3CN(Cc3ccc(CC(C)(C)O)cc3)C2=O)CC1 [NH-K-A19010, 7-fluoro-2-[[4-(2-hydroxy-2-methylpropyl)phenyl]methyl]-4-(1-methylpiperidin-4-yl)-1,5-dihydro-2,4-benzodiazepin-3-one] | 20.1 | 0.91 | 18.2 | –
5 | CC(C)Oc1ccc(CN2Cc3ccc(F)cc3CN(C3CCN(C)CC3)C2=O)c(F)c1 [NH-K-A19011, 8-fluoro-2-(1-methylpiperidin-4-yl)-4-[[(2-fluoro-4-isopropoxy)phenyl]methyl]-1,5-dihydro-2,4-benzodiazepine-3-one] | 12.7 | – | – | –
6 | CC(C)Oc1ccc(CN2Cc3ccc(F)cc3CN(C3CCN(C)CC3)C2=O)cc1F [NH-K-A19012, 8-fluoro-2-(1-methylpiperidin-4-yl)-4-[[(3-fluoro-4-isopropoxy)phenyl]methyl]-1,5-dihydro-2,4-benzodiazepine-3-one] | 0.947 | 9.882 | 9.36 | ED50 [1]: 0.3 mg/kg; ED50 [2]: 3.73 mg/kg
7 | CC(C)Oc1ccc(CN2Cc3ccc(F)cc3CN(C3CCN(C)CC3)C2=O)cn1 [NH-K-A19013, 8-fluoro-2-(1-methylpiperidin-4-yl)-4-[[(6-isopropoxy)pyridin-3-yl]methyl]-1,5-dihydro-2,4-benzodiazepine-3-one] | 9.78 | – | – | –
8 | CC(C)COc1ccc(CN2Cc3ccc(F)cc3CN([C@H]3CCN(C)C[C@H]3F)C2=O)cc1 [NH-K-A19014-0, (3R,4S)-8-fluoro-2-(1-methyl-3-fluoropiperidin-4-yl)-4-[[4-(2-methylpropoxy)phenyl]methyl]-1,5-di hydro-2,4-benzodiazepine-3-one] | 4.19 | 0.049 | – | Ki (5-HT2C receptor): 0.2 nM
9 | CC(C)COc1ccc(CN2Cc3ccc(F)cc3CN([C@H]3CCN(C)C[C@@H]3F)C2=O)cc1 [NH-K-A19014-0A, (3S,4S)-8-fluoro-2-(1-methyl-3-fluoropiperidin-4-yl)-4-[[4-(2-methylpropoxy)phenyl]methyl]-1,5-dihydro-2,4-benzodiazepine-3-one] | 0.002 | 16029.47 | – | Ki (5-HT2C receptor): 26.1 nM
10 | CC(C)COc1ccc(CN2Cc3ccc(F)cc3CN(C3CCN(C)C3)C2=O)cc1 (stereo not drawn) [NH-K-A19015] | – | – | – | Ki (5-HT2A receptor): 1.69 nM; Ki (5-HT2C receptor): 0.41 nM
11 | CC(C)COc1ccc(CN2Cc3ccc(F)cc3CC3(CCN(C)CC3)C2=O)cc1 [NH-K-A19019, 7-fluoro-1′-methyl-2-[[4-(2-methylpropoxy)phenyl]methyl]-1,2-dihydrospiro[benzo[c]azepine-4,4′-piperidine]-3(5H)-one] | 53.3 | – | – | –
12 | CC(C)COc1ccc(CN2Cc3ccccc3CN(C3CCN(C)CC3)C2=O)cc1 [NH-K-A19020, 2-(1-methylpiperidin-4-yl)-4-[[4-(2-methylpropoxy)phenyl]methyl]-1,5-dihydro-2,4-benzodiazepine-3-one] | 1.74 | – | – | –
13 | CN1CCC(N2Cc3ccc(F)cc3CN(Cc3ccc(OC4CC4)cc3)C2=O)CC1 [NH-K-A19022, 4-[(4-cyclopropoxyphenyl)methyl]-7-fluoro-2-(1-methylpiperidin-4-yl)-1,5-dihydro-2,4-benzodiaze pine-3-one] | 0.15 | 8.76 | 1.33 | –
14 | CC(C)COc1ccc(CN2Cc3cc(F)c(F)cc3CN(C3CCN(C)CC3)C2=O)cc1 [NH-K-A20001, 7,8-difluoro-2-(4-isobutoxybenzyl)-4-(1-methylpiperidin-4-yl)-1,2,4,5-tetrahydro-3H-benzo[e][1,3]diazepin-3-one] | 5.98 | – | – | –
15 | CC(C)COc1ccc(CN2Cc3cc(Cl)ccc3CN(C3CCN(C)CC3)C2=O)cc1 [NH-K-A190017, 7-chloro-2-(1-methylpiperidin-4-yl)-4-[[4-(2-methylpropoxy)phenyl]methyl]-1,5-dihydro-2,4-benzo diazepine-3-one] | 1.63 | 298.694 | 486 | –
